Test results reported in patent US12195490B2, “STRAD-binding agents and uses thereof” (The Regents of the University of California, priority 2020, dated 2025).

tested on: ACHN cell line; test: drug screen of the SelleckChem kinase inhibitor library with and without 5 uM SU-329, Cell-Titer Glo after 5 days; format: cell-based; settings: kinase inhibitor at 200 nM with and without 5 uM SU329; ACHN cell line; 5 days; Cell-Titer Glo

Question: How did the log2fc turn out when O=C(c1ccc(Nc2nccc(-c3cc4ccccc4s3)n2)cc1)N1CCC(N2CCCC2)CC1 [IKK-16 (IKK Inhibitor VII)] was run?
Answer: −0.1183

Question: For CN(C)CCOc1ccc(-c2nc(-c3ccncc3)c(-c3ccc4c(c3)CC/C4=N\O)[nH]2)cc1 [SB590885], which log2fc is on record?
Answer: 0.2113

Question: For Cc1cc(F)c(Nc2ncnc3cc(OCc4ccccc4)ccc23)cc1O.Cl [ZM 323881 HCl], which log2fc is on record?
Answer: 0.1765

Question: CNC(=O)CN1CCC(Oc2cc3c(Nc4cccc(Cl)c4F)ncnc3cc2OC)CC1 [Sapitinib (AZD8931), AZD8931, reference compound] was tested. Which log2fc did it give?
Answer: 0.358

Question: How did the log2fc turn out when Nc1cccc(-c2cc3c(Oc4cccc(O)c4)ncnc3[nH]2)c1 [TWS119] was run?
Answer: 0.52

Question: NC(=O)Nc1cc(-c2cccc(F)c2)sc1C(=O)N[C@H]1CCCNC1 [AZD7762] was tested. Which log2fc did it give?
Answer: 0.8568

Question: For C#Cc1cccc(Nc2ncnc3cc(OCCOC)c(OCCO)cc23)c1.Cl [OSI-420, desmethyl erlotinib, reference compound], which log2fc is on record?
Answer: −0.04846

Question: COc1cc2ncnc(Nc3ccc(O)c(Br)c3)c2cc1OC [WHI-P154] was tested. Which log2fc did it give?
Answer: 0.511

Question: CN1CCN(C2CCN(C(=O)Nc3cc(Oc4ccc(NC(=O)C5(C(=O)Nc6ccc(F)cc6)CC5)c(F)c4)ccn3)CC2)CC1 [Golvatinib (E7050)] was tested. Which log2fc did it give?
Answer: −0.1341

Question: C[C@@H](Oc1cc(-n2cnc3ccc(CN4CCN(C)CC4)cc32)sc1C(N)=O)c1ccccc1C(F)(F)F [GSK461364] was tested. Which log2fc did it give?
Answer: 0.9925

Question: How did the log2fc turn out when Cn1cc(C2=C(c3ccc(Cl)cc3Cl)C(=O)NC2=O)c2ccccc21 [SB216763] was run?
Answer: 0.4708

Question: COc1c(C)c(C(=O)c2ccc(N)c(C(=O)[O-])c2)n2ccccc12.[Na+] [SSR128129E] was tested. Which log2fc did it give?
Answer: 0.3473

Question: Which log2fc does the source give for Cc1cc(C(C)Nc2ccccc2)c2nc(N3CCOCC3)cc(=O)n2c1 (stereo not shown) [TGX-221] here?
Answer: −0.3415

Question: Which log2fc does the source give for COc1cc2c(Oc3ccc(NC(=O)C4(C(=O)Nc5ccc(F)cc5)CC4)cc3F)ccnc2cc1OCCCN1CCOCC1 [Foretinib (GSK1363089)] here?
Answer: −0.1359

Question: How did the log2fc turn out when GZD824 Dimesylate was run?
Answer: 1.434

Question: With Cc1cc(CS(=O)(=O)c2ccccc2)cc(OCc2ccc(CN3CCC[C@@H]3CO)cc2)c1 [PF-543] as the compound, how does the log2fc read?
Answer: 0.8598

Question: How did the log2fc turn out when Cc1cc([C@@H](C)Nc2ccccc2C(=O)O)c2nc(N3CCOCC3)cc(=O)n2c1 [AZD6482] was run?
Answer: −0.1098

Question: Fc1cc(-c2cccc3ncc(-c4cnn(C5CCNCC5)c4)nc23)cc(F)c1CN1CCOCC1 [NVP-BSK805 2HCl] was tested. Which log2fc did it give?
Answer: −0.09499

Question: With CCCS(=O)(=O)Nc1ccc(F)c(C(=O)c2c[nH]c3ncc(Cl)cc23)c1F [PLX-4720] as the compound, how does the log2fc read?
Answer: −0.05066

Question: Which log2fc does the source give for Cc1[nH]c(/C=C2\C(=O)Nc3ccc(S(=O)(=O)Cc4c(Cl)cccc4Cl)cc32)c(C)c1C(=O)N1CCC[C@@H]1CN1CCCC1 [PHA-665752] here?
Answer: 0.1781

Question: How did the log2fc turn out when CCN1/C(=C/C(C)=O)Sc2ccc(OC)cc21 [TG003] was run?
Answer: 0.4163

Question: With C=CC(=O)Nc1cccc(Nc2nc(Nc3ccc(N4CCN(C(C)=O)CC4)cc3OC)ncc2C(F)(F)F)c1 [Rociletinib (CO-1686, AVL-301)] as the compound, how does the log2fc read?
Answer: −0.001899

Question: Cc1nc(Nc2ncc(C(=O)Nc3c(C)cccc3Cl)s2)cc(N2CCN(CCO)CC2)n1 [Dasatinib, dasatinib, reference compound] was tested. Which log2fc did it give?
Answer: −0.196

Question: Which log2fc does the source give for CNC(=O)c1nn(C)c2c1C(C)(C)Cc1cnc(Nc3ccc(N4CCN(C)CC4)cc3)nc1-2 [Milciclib (PHA-848125)] here?
Answer: 0.9986

Question: For CS(=O)(=O)CCNCc1ccc(-c2ccc3ncnc(Nc4ccc(OCc5cccc(F)c5)c(Cl)c4)c3c2)o1 [Lapatinib], which log2fc is on record?
Answer: 0.9499

Question: With CCCCCCCCCCCCc1ccc(S(=O)(=O)Nc2nncs2)cc1 [PHT-427] as the compound, how does the log2fc read?
Answer: −0.02861

Question: Which log2fc does the source give for O=c1cc(-c2cccc3c2Sc2ccccc2S3)oc(N2CCOCC2)c1 [KU-55933 (ATM Kinase Inhibitor)] here?
Answer: 0.3053

Question: With N#CCNC(=O)c1ccc(-c2ccnc(Nc3ccc(N4CCOCC4)cc3)n2)cc1 [Momelotinib (CYT387)] as the compound, how does the log2fc read?
Answer: −1.441

Question: For Nc1nccc(Oc2ccc(NC(=O)c3c[nH]cc(-c4ccc(F)cc4)c3=O)cc2F)c1Cl [BMS-794833], which log2fc is on record?
Answer: −0.04405

Question: How did the log2fc turn out when CCOc1cc(C(=O)N2CCC(N3CCN(C)CC3)CC2)ccc1Nc1ncc2c(n1)N(C1CCCC1)c1ccccc1C(=O)N2C [ERK5-IN-1] was run?
Answer: 0.1031

Question: How did the log2fc turn out when COc1cc2ncnc(Nc3ccc(F)c(Cl)c3)c2cc1NC(=O)/C=C/CN1CCCCC1 [Dacomitinib (PF299804, PF299)] was run?
Answer: 0.3997

Question: With N#Cc1c(NC(=O)c2cccc3ccccc23)sc2c1CCCC2 [JNK Inhibitor IX] as the compound, how does the log2fc read?
Answer: 0.1814

Question: Cl.Cl.Clc1ccc(Nc2nnc(Cc3ccncc3)c3ccccc23)cc1 [Vatalanib (PTK787) 2HCl] was tested. Which log2fc did it give?
Answer: −0.4289

Question: Which log2fc does the source give for CCOc1cc2ncc(C#N)c(Nc3ccc(F)c(Cl)c3)c2cc1NC(=O)/C=C/CN(C)C [Pelitinib (EKB-569)] here?
Answer: 0.96

Question: For CSc1cccc(Nc2ncc3cc(-c4c(Cl)cccc4Cl)c(=O)n(C)c3n2)c1 [PD173955], which log2fc is on record?
Answer: −0.1932

Question: Cc1csc(-c2nnc(Nc3ccc(Oc4ncccc4-c4ccnc(N)n4)cc3)c3ccccc23)c1 [AMG-900] was tested. Which log2fc did it give?
Answer: 0.883

Question: How did the log2fc turn out when C[C@@H]1COC(Nc2ccc3ncnc(Nc4ccc(OCc5nccs5)c(Cl)c4)c3c2)=N1 [Varlitinib] was run?
Answer: 0.7999

Question: Cc1cnc(-c2cnc(NCCNc3ccc(C#N)cn3)nc2-c2ccc(Cl)cc2Cl)[nH]1 [CHIR-99021 (CT99021)] was tested. Which log2fc did it give?
Answer: 1.316

Question: Which log2fc does the source give for Cn1cc(C2=C(c3cn(C4CCN(Cc5ccccn5)CC4)c4ccccc34)C(=O)NC2=O)c2ccccc21 [Enzastaurin (LY317615)] here?
Answer: 0.5814

Question: For COc1cc(Nc2c(C#N)cnc3cc(OCCCN4CCN(C)CC4)c(OC)cc23)c(Cl)cc1Cl [Bosutinib (SKI-606)], which log2fc is on record?
Answer: −0.1583

Question: COc1ccc(-c2ccc3c(N4CCOC[C@@H]4C)nc(N4CCOC[C@@H]4C)nc3n2)cc1CO [AZD8055] was tested. Which log2fc did it give?
Answer: 0.1024

Question: For C=CC(=O)Nc1cc(Nc2nccc(-c3cn(C)c4ccccc34)n2)c(OC)cc1N(C)CCN(C)C [Osimertinib (AZD9291)], which log2fc is on record?
Answer: −0.01286

Question: Which log2fc does the source give for Cn1cc(-c2ccc3ncc(Cc4ccc5ncccc5c4)n3n2)cn1 [NVP-BVU972] here?
Answer: 0.5846

Question: Cl.O=S(=O)(c1cccc2cnccc12)N1CCCNCC1 [Fasudil (HA-1077) HCl] was tested. Which log2fc did it give?
Answer: 0.1457

Question: With Cc1ccc(NC(=O)c2cccc(N(C)C)c2)cc1NC(=O)c1ccc(O)cc1 [ZM 336372] as the compound, how does the log2fc read?
Answer: 0.2177

Question: CC(C)(C)c1ccc(S(=O)(=O)/C=C/C#N)cc1 [Bay 11-7085] was tested. Which log2fc did it give?
Answer: 0.004153

Question: For CCCCCCCCc1ccc(CCC(N)(CO)CO)cc1.Cl [Fingolimod (FTY720) HCl], which log2fc is on record?
Answer: 0.7051

Question: For Cc1ccc(Nc2nccc(N(C)c3ccc4c(C)n(C)nc4c3)n2)cc1S(N)(=O)=O [Pazopanib], which log2fc is on record?
Answer: −0.1316

Question: For CN1CCN(Cc2ccc(-c3cnc4[nH]cc(-c5ccc6[nH]ccc6c5)c4c3)cc2)CC1 [URMC-099], which log2fc is on record?
Answer: 0.3515

Question: Which log2fc does the source give for Cc1cc(Nc2nc(N[C@@H](C)c3ncc(F)cn3)ncc2Cl)[nH]n1 [AZD1480] here?
Answer: 0.4813

Question: How did the log2fc turn out when N#C/C(=C(/N)Sc1ccc(N)cc1)c1ccccc1C(F)(F)F [SL-327] was run?
Answer: −0.2882

Question: Which log2fc does the source give for C[C@@H]1CCN(C(=O)CC#N)C[C@@H]1N(C)c1ncnc2[nH]ccc12 [Tofacitinib (CP-690550, Tasocitinib)] here?
Answer: 0.6421

Question: With C[C@@]1(C(=O)Nc2ccc(F)nc2)CCCN1c1nc(Nc2cc(C3CC3)n[nH]2)c2cccn2n1 [BMS-754807] as the compound, how does the log2fc read?
Answer: −1.139

Question: Which log2fc does the source give for CC(C)(C)c1cnc(CSc2cnc(NC(=O)C3CCNCC3)s2)o1 [SNS-032 (BMS-387032)] here?
Answer: −1.028

Question: How did the log2fc turn out when O=c1cc(N2CCOCC2)oc2c(-c3ccccc3)cccc12 [LY294002] was run?
Answer: 0.5337

Question: How did the log2fc turn out when Cc1ccccc1-n1c(Cn2ncc3c(N)ncnc32)nc2cccc(C)c2c1=O [PIK-293] was run?
Answer: 0.1249

Question: O=C1NC(=O)[C@@H](c2cn3c4c(cccc24)CCC3)[C@@H]1c1c[nH]c2ccccc12 [Tivantinib (ARQ 197)] was tested. Which log2fc did it give?
Answer: 0.2709

Question: CCCCOc1c(C(=O)c2c(F)cc(C)cc2F)c[nH]c2nncc1-2 [BMS-265246] was tested. Which log2fc did it give?
Answer: −0.1077

Question: For S-Ruxolitinib (INCB018424), which log2fc is on record?
Answer: −0.1855

Question: Which log2fc does the source give for CNc1nc(Nc2cnn([C@H]3CCN(C4COC4)C[C@@H]3F)c2Cl)ncc1C(F)(F)F [GNE-9605] here?
Answer: 0.4092

Question: With COc1cc(CCc2cc(NC(=O)c3ccc(N4CC(C)NC(C)C4)cc3)n[nH]2)cc(OC)c1 (stereo not shown) [AZD4547] as the compound, how does the log2fc read?
Answer: 0.4725

Question: For O=C(O)[C@]1(Cc2cccc(Nc3nccs3)n2)CC[C@@H](Oc2cccc(Cl)c2F)CC1 [MK-5108 (VX-689)], which log2fc is on record?
Answer: −0.2429

Question: How did the log2fc turn out when CC(=O)Nc1cccc(-n2c(=O)n(C3CC3)c(=O)c3c(Nc4ccc(I)cc4F)n(C)c(=O)c(C)c32)c1 [Trametinib (GSK1120212)] was run?
Answer: 0.4803

Question: Which log2fc does the source give for Oc1ccc(Nc2nc(-c3ccc(Cl)cc3)cs2)cc1 [SKI II] here?
Answer: 0.06564

Question: For CC[C@H](Nc1ncnc2[nH]cnc12)c1nc2cccc(F)c2c(=O)n1-c1ccccc1 [Idelalisib (CAL-101, GS-1101)], which log2fc is on record?
Answer: 0.09838

Question: For CC1(COc2ccc3c(c2)ncn3-c2ccc3cccc(N4CCC(N)CC4)c3n2)COC1 [Crenolanib (CP-868596)], which log2fc is on record?
Answer: 0.3666

Question: Which log2fc does the source give for Cc1nc(NC(=O)N2CCC[C@H]2C(N)=O)sc1-c1ccnc(C(C)(C)C(F)(F)F)c1 [Alpelisib (BYL719)] here?
Answer: −0.1349

Question: With O=C(/C=C/c1ccc2ccccc2n1)c1ccncc1 [PFK15] as the compound, how does the log2fc read?
Answer: −0.9312

Question: Cc1[nH]c(/C=C2\C(=O)Nc3ccccc32)c(C)c1CCC(=O)O [Orantinib (TSU-68, SU6668)] was tested. Which log2fc did it give?
Answer: −0.2487

Question: O=C(NC1CCNCC1)c1n[nH]cc1NC(=O)c1c(Cl)cccc1Cl [AT7519] was tested. Which log2fc did it give?
Answer: −1.085

Question: Which log2fc does the source give for 10058-F4 here?
Answer: 0.2472

Question: With C[C@@H](NC(=O)c1ncnc(N)c1Cl)c1ncc(C(=O)Nc2cc(C(F)(F)F)c(Cl)cn2)s1 [MLN2480] as the compound, how does the log2fc read?
Answer: 0.5916

Question: Which log2fc does the source give for CN(c1ncccc1CNc1nc(Nc2ccc3c(c2)CC(=O)N3)ncc1C(F)(F)F)S(C)(=O)=O [PF-00562271] here?
Answer: 0.8274

Question: COc1ccc(-c2ccc3ncc4c(c3c2)n(-c2ccc(N3CCNCC3)c(C(F)(F)F)c2)c(=O)n4C)cn1 [BGT226 (NVP-BGT226)] was tested. Which log2fc did it give?
Answer: −0.4638

Question: COc1cc(Nc2ncc(F)c(Nc3ccc4c(n3)NC(=O)C(C)(C)O4)n2)cc(OC)c1OC [R406 (free base)] was tested. Which log2fc did it give?
Answer: 0.8334

Question: How did the log2fc turn out when CC(=O)Nc1nc(C)c(-c2ccc(Cl)c(S(=O)(=O)NCCO)c2)s1 [PIK-93] was run?
Answer: 0.3162
